According to BindingDB's records for patent US20250313563 (The Broad Institute, 2025):
Values joined by “and” are separate entries in the source; they are usually repeats but may differ in a detail not shown here. Equal entries are not always repeated.

Assays:
[1] = biological target: Glycogen synthase kinase-3 alpha (Homo sapiens, UniProt P49840); test: TR-FRET Assay
In short: (§1)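 Enzyme and test compound were first incubated together for 30 minutes in assay buffer. The kinase reaction followed and was stopped with EDTA. The pSer641 signal was read by time-resolved FRET.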

[2] = biological target: Glycogen synthase kinase-3 beta (Homo sapiens, UniProt P49841); test: TR-FRET Assay
Sequence of Glycogen synthase kinase-3 beta (P49841 whole entry): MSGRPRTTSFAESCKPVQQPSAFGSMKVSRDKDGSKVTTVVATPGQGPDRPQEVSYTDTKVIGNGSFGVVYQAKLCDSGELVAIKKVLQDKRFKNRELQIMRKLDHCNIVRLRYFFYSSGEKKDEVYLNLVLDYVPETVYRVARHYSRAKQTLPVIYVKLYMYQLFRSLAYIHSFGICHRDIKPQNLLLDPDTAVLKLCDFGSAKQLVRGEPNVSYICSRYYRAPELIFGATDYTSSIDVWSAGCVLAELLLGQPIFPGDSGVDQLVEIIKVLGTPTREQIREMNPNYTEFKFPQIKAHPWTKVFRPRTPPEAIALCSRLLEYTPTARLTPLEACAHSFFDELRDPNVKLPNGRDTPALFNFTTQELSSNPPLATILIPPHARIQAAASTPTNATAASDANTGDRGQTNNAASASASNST
In short: as §1

Sequence of Glycogen synthase kinase-3 alpha (P49840 whole entry): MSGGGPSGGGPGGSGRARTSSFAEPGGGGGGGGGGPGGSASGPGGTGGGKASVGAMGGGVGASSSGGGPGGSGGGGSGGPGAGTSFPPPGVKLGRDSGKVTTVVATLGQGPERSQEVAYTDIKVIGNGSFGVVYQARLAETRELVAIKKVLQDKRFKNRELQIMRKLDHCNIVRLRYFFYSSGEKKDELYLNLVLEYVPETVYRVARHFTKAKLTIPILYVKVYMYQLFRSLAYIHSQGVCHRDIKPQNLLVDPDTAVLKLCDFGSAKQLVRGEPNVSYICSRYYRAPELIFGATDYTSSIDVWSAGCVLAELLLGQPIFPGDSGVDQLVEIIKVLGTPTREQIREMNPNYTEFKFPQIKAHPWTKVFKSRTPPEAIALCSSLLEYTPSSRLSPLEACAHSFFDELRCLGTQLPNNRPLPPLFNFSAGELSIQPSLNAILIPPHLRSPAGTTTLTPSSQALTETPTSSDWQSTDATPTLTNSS

| SMILES | IC50 [1] | IC50 [2] |
| --- | --- | --- |
| CC[C@@]1(c2ccccc2)C2=C(N=NC2)NC2=C1C(=O)[C@H]1CC[C@@H]2C1 [US20250313563, Compound 791266] | > 5000 nM | > 5000 nM |
| CC[C@@]1(c2ccccc2)C2=CN=NC2NC2=C1C(=O)[C@H](C)C[C@@H]2C (stereo partly specified) [US20250313563, Compound 909217] | 100 to 1000 nM | 1000 to 5000 nM |
| CC(C)(C)CC1N=NC2=C1[C@](C)(c1cccc(S(=O)(=O)N3CCCC3)c1)C1=C(CC(C)(C)NC1=O)N2 (stereo partly specified) [US20250313563, Compound 108791] | 1000 to 5000 nM | 100 to 1000 nM |
| CC(C)(C)CC1=C2C(N=N1)NC1=C(C(=O)CC(C)(C)C1)[C@@]21CCc2ccc(F)cc21 (stereo partly specified) [US20250313563, Compound 789505] | 100 to 1000 nM | < 100 nM |
| CC(=O)N1CC2(C1)C[C@@]1(CO2)C2=C(N=NC2)NC2=C1C(=O)CC(C)(C)C2 [US20250313563, Compound 926861] | < 100 nM | < 100 nM |
| CC1(C)CC(=O)C2=C(C1)NC1N=NC=C1C21CCCN(CC(F)(F)F)CC1 (stereo unspecified) [US20250313563, Compound 889576] | 100 to 1000 nM | 100 to 1000 nM |
| CC(=O)N1CC2(C1)C[C@]1(CO2)C2=C(N=NC2)NC2=C1C(=O)CC(C)(C)C2 [US20250313563, Compound 926872] | 100 to 1000 nM | 100 to 1000 nM |
| CC[C@@]1(c2cccc(-c3ccncc3C)c2)C2=C(CC(C)(C)CC2=O)NC2N=NC(C)=C21 (stereo partly specified) [US20250313563, Compound 913022] | 100 to 1000 nM | 1000 to 5000 nM |
| CC[C@]1(c2ccccc2)C2=C(CC(C)(C)CC2=O)NC2N=NC(Br)=C21 (stereo partly specified) [US20250313563, Compound 792341] | 100 to 1000 nM | 100 to 1000 nM |
| CC1(C)CC(=O)C2=C(C1)NC1=C(CN=N1)C21CCSC1 (stereo unspecified) [US20250313563, Compound 883973] | < 100 nM | 100 to 1000 nM |
| CC1(C)CC(=O)C2=C(C1)NC1N=NC=C1[C@]21CCOC2(CCCC2)C1 (stereo partly specified) [US20250313563, Compound 907327] | 100 to 1000 nM | 1000 to 5000 nM |
| CC1(C)CC(=O)C2=C(C1)NC1=C(CN=N1)[C@]21CCO[C@H](C(C)(C)C)C1 [US20250313563, Compound 912112] | 100 to 1000 nM | 100 to 1000 nM |
| Cn1cncc1-c1cccc([C@]2(C)C3=C(CC(C)(C)CC3=O)NC3=C2C(CC(C)(C)C)N=N3)c1 (stereo partly specified) [US20250313563, Compound 126014] | 100 to 1000 nM | 100 to 1000 nM |
| CC[C@]1(c2cccc(OC)c2)C2=C(CC(C)(C)CC2=O)NC2N=NC(C(=O)OC)=C21 (stereo partly specified) [US20250313563, Compound 901479] | < 100 nM | < 100 nM |
| CC[C@]1(c2cccc(-c3ccnc(OC)c3)c2)C2=CN=NC2NC2=C1C(=O)CC(C)(C)C2 (stereo partly specified) [US20250313563, Compound 911988] | < 100 nM and 100 to 1000 nM | 100 to 1000 nM and > 5000 nM |
| CC1(C)CC(=O)C2=C(NC3=C(CN=N3)C23CCOCC3)[C@@H]1F [US20250313563, Compound 883834] | 100 to 1000 nM | 1000 to 5000 nM |

Continued, values first:

| IC50 [1] | IC50 [2] | SMILES |
| --- | --- | --- |
| < 100 nM | 100 to 1000 nM | CC[C@@]1(c2cccc(-c3cnn(Cc4cccc(C(F)(F)F)c4)c3)c2)C2=CN=NC2NC2=C1C(=O)NC(C)(C)C2 (stereo partly specified) [US20250313563, Compound 951848] |
| 100 to 1000 nM | 1000 to 5000 nM | CC[C@]1(c2cccc(-c3ccncc3C(F)(F)F)c2)C2=CN=NC2NC2=C1C(=O)CC(C)(C)C2 (stereo partly specified) [US20250313563, Compound 943918] |
| < 100 nM and 100 to 1000 nM | 100 to 1000 nM and > 5000 nM | CC[C@@]1(c2cccc(-c3ccnc(C)c3)c2)C2=CN=NC2NC2=C1C(=O)[C@H](F)C(C)(C)C2 (stereo partly specified) [US20250313563, Compound 945476] |
| 100 to 1000 nM | 100 to 1000 nM | CC[C@]1(c2cccc(C(F)(F)F)c2)C2=CN=NC2NC2=C1C(=O)N(c1cncnc1)CC2 (stereo partly specified) [US20250313563, Compound 948379] |
| 100 to 1000 nM | 100 to 1000 nM | CCC1(c2cccc(S(C)(=O)=O)c2)C2=C(CC(C)(C)NC2=O)NC2N=NC(C)=C21 (stereo unspecified) [US20250313563, Compound 947395] |
| < 100 nM and 100 to 1000 nM | < 100 nM and 1000 to 5000 nM | CC[C@@]1(c2cccc(-c3cc(C)ncc3OC)c2)C2=CN=NC2NC2=C1C(=O)CC(C)(C)C2 (stereo partly specified) [US20250313563, Compound 945995] |
| < 100 nM | < 100 nM | CCc1ncc(S(=O)(=O)N2CCC3(CC2)C2=CN=NC2NC2=C3C(=O)NC(C)(C)C2)s1 (stereo unspecified) [US20250313563, Compound 947837] |
| < 100 nM | 100 to 1000 nM | CC1(C)CC(=O)C2=C(C1)NC1=C(CN=N1)[C@@]21CO[C@H](c2ccccc2)C1 [US20250313563, Compound 946072] |
| < 100 nM | < 100 nM | CCC1(c2cccc(-c3c(C)nn(C)c3C)c2)C2=C(CC(C)(C)NC2=O)NC2N=NC(C)=C21 (stereo unspecified) [US20250313563, Compound 945598] |
| 100 to 1000 nM | > 5000 nM | CC[C@]1(c2cccc(-c3ccnc4cc(Cl)c(C)cc34)c2)C2=CN=NC2NC2=C1C(=O)NC(C)(C)C2 (stereo partly specified) [US20250313563, Compound 948645] |
| < 100 nM and 100 to 1000 nM | < 100 nM and 1000 to 5000 nM | CCc1cccc([C@@]2(CC)C3=CN=NC3NC3=C2C(=O)CC(C)(C)C3)c1 (stereo partly specified) [US20250313563, Compound 949401] |
| 100 to 1000 nM | 100 to 1000 nM | COc1cccc(S(=O)(=O)N2CC[C@@]3(C2)C2=C(N=NC2)NC2=C3C(=O)CC(C)(C)C2)c1 [US20250313563, Compound 951789] |
| < 100 nM | < 100 nM | CCC1(c2cccc(N(C)c3nccc(OC)n3)c2)C2=CN=NC2NC2=C1C(=O)CC(C)(C)C2 (stereo unspecified) [US20250313563, Compound 929387] |
| > 5000 nM | > 5000 nM | CC[C@]1(c2cccc(-c3cc(C4CCCC4)nn3C)c2)C2=CN=NC2NC2=C1C(=O)NC(C)(C)C2 (stereo partly specified) [US20250313563, Compound 949509] |
| > 5000 nM | > 5000 nM | CC[C@]1(c2cccc(-c3cnn(C(F)F)c3)c2)C2=CN=NC2NC2=C1C(=O)NC(C)(C)C2 (stereo partly specified) [US20250313563, Compound 948816] |
| < 100 nM | < 100 nM | COC(=O)C1(c2ccccc2)CC2(C1)C1=C(N=NC1)NC1=C2C(=O)CC(C)(C)C1 (stereo unspecified) [US20250313563, Compound 942366] |
| < 100 nM | < 100 nM | CN(C)C(=O)c1cccc(S(=O)(=O)N2CCC3(CC2)C2=C(N=NC2)NC2=C3C(=O)CC(C)(C)C2)c1 [US20250313563, Compound 947247] |
| 1000 to 5000 nM | > 5000 nM | CC[C@]1(c2cccc(-c3c(C)nn(C)c3C)c2)C2=CN=NC2NC2=C1C(=O)NC(C)(C)C2 (stereo partly specified) [US20250313563, Compound 947413] |
| < 100 nM | < 100 nM and 100 to 1000 nM | CCC1(c2cccc(-c3cnn(C)c3)c2)C2=C(CC(C)(C)NC2=O)NC2N=NC(C(F)(F)F)=C21 (stereo unspecified) [US20250313563, Compound 947405] |
| < 100 nM | < 100 nM | Cn1nc(C(F)(F)F)cc1S(=O)(=O)N1CCC2(CC1)C1=C(N=NC1)NC1=C2C(=O)CC(C)(C)C1 [US20250313563, Compound 947606] |
| > 5000 nM | > 5000 nM | CC[C@]1(c2cccc(-c3ccnnc3)c2)C2=CN=NC2NC2=C1C(=O)CC(C)(C)C2 (stereo partly specified) [US20250313563, Compound 929443] |
| > 5000 nM | > 5000 nM | CC[C@@]1(c2cccc(-c3ccnc(C)c3F)c2)C2=C(CC(C)(C)CC2=O)NC2N=NC(C)=C21 (stereo partly specified) [US20250313563, Compound 927340] |
